Reference: patent US20020026053A1, “Novel 3-(substituted) -2- indolinones compounds and use thereof as inhibitors of protein kinase activity” (priority 1997, published 2002)

Assays:
EGFR = target: T1, EGFR (Homo sapiens, UniProt P00533); assay: Biochemical EGFR Assay; design: concentration or dose not given beside the values; conditions: protocol P.167
T1 construct: endogenous in cells; host or cells: A431 cells (lysate, captured with SUMO1 anti-EGFR antibody)
Method in brief: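 EGFR from A431 lysate was captured on anti-EGFR-coated wells and preincubated 30 min with compound (diluted 1:10 in TBS) at room temperature. After ATP/MnCl2 phosphorylation for 5 min, the reaction was stopped with EDTA. Phosphotyrosine was detected by ELISA (anti-phosphotyrosine, peroxidase conjugate, ABTS) at 410 nm.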

PDGF-R = PDGF-R Assay (cellular ELISA, U1242 cells); type: cell-based; design: concentration or dose not given beside the values; conditions: protocol P.119
Method in brief: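 U1242 cells seeded in 0.5% serum, serum-starved, then exposed to compound for 2 hr at 37°C before 5–10 min ligand stimulation and lysis in HNTG. Lysate captured on receptor-antibody-coated plates; phosphotyrosine detected with polyclonal anti-pTyr, goat anti-rabbit IgG and ABTS/H2O2, A410 (ref 630 nm), versus untreated cells.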

T1 sequence (P00533 25-1210): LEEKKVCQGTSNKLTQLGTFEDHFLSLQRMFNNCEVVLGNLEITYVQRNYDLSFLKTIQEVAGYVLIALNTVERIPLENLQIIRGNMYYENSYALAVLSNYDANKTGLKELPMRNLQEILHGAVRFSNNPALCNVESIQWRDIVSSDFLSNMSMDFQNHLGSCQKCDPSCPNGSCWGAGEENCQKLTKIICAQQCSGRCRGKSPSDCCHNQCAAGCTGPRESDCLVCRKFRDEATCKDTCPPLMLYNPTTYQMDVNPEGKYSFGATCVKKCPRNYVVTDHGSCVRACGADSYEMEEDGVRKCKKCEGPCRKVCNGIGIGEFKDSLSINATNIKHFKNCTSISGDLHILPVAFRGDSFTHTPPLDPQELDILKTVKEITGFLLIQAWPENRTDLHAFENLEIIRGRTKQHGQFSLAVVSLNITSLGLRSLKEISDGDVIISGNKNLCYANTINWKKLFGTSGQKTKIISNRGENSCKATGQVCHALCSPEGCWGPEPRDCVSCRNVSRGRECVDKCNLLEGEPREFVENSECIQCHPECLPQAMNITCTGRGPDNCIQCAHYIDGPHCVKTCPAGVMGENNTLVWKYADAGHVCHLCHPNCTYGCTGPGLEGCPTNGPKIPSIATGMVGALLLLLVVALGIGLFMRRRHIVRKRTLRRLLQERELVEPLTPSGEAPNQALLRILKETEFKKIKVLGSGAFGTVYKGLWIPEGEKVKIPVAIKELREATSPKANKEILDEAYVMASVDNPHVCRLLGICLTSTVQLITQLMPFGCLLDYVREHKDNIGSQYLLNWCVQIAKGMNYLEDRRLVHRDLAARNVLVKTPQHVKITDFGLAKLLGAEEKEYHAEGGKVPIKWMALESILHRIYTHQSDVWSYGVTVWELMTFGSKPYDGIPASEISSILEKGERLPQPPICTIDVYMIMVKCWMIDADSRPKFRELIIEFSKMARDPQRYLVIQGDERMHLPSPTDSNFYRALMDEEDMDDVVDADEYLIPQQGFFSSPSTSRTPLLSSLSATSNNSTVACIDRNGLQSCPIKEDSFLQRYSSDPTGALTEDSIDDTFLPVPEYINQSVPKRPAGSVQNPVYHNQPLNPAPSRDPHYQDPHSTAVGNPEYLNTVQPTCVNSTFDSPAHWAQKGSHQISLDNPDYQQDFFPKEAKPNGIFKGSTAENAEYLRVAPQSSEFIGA

SMILES | Biochem EGFR % Inhibition (P.167) (EGFR) [%] | PDGF Kinase % Inhibition (P.119) (PDGF-R) [%]
Cc1c(Br)cc(Br)c2c1C(=Cc1cc(O)cc(O)c1)C(=O)N2 [10738/H07] | −13.4 | 
Cc1c(Br)cc(Br)c2c1C(=Cc1ccc(Cl)c(Cl)c1)C(=O)N2 [10738/H08] | −12.1 | 
COc1ccccc1C=C1C(=O)Nc2c(Br)cc(Br)c(C)c21 [10738/H09] | 1.6 | 
Cc1c(Br)cc(Br)c2c1C(=Cc1ccc(C(C)C)cc1)C(=O)N2 [10738/H10] | 11.4 | 
CCCOc1ccc(C=C2C(=O)Nc3c(Br)cc(Br)c(C)c32)cc1 [10738/H11] | −13.4 | 
COc1ccc(C=C2C(=O)Nc3c(Br)cc(Br)cc32)cc1C [10739/A02] | 0.0 | 21.7
O=C1Nc2c(Br)cc(Br)cc2C1=Cc1cccc(OCc2ccccc2)c1 [10739/A03] | 5.1 | 15.4
O=C1Nc2c(Br)cc(Br)cc2C1=Cc1ccc(OCc2ccccc2)cc1 [10739/A04] | −6.3 | 23.2
O=C1Nc2c(Br)cc(Br)cc2C1=CC1COc2ccccc2O1 (stereo not drawn) [10739/A05] | 10.7 | 15.9
O=C1Nc2c(Br)cc(Br)cc2C1=Cc1ccc(O)cc1Cl [10739/A06] | −5.5 | 17.8
O=C1Nc2c(Br)cc(Br)cc2C1=Cc1cc(O)c(O)c(O)c1 [10739/A07] | 65.6 | 34.8
COc1ccc(Oc2cccc(C=C3C(=O)Nc4c(Br)cc(Br)cc43)c2)cc1 [10739/A08] | 6.2 | 3.8
CN(C)CCCOc1ccc(C=C2C(=O)Nc3c(Br)cc(Br)cc32)cc1 [10739/A09] | 26.9 | −0.6
O=C1Nc2c(Br)cc(Br)cc2C1=Cc1ccoc1 [10739/A10] | 20.7 | −1.1
O=C1Nc2c(Br)cc(Br)cc2C1=Cc1ccc(CO)o1 [10739/A11] | −8.7 | 1.8
COc1ccc(C=C2C(=O)Nc3ccc(I)cc32)cc1C [10739/B02] | 18.1 | 5.2
O=C1Nc2ccc(I)cc2C1=Cc1cccc(OCc2ccccc2)c1 [10739/B03] | 9.6 | 1.8
O=C1Nc2ccc(I)cc2C1=Cc1ccc(OCc2ccccc2)cc1 [10739/B04] | 17.5 | 19.8
O=C1Nc2ccc(I)cc2C1=CC1COc2ccccc2O1 (stereo not drawn) [10739/B05] | 32.0 | 4.7
O=C1Nc2ccc(I)cc2C1=Cc1ccc(O)cc1Cl [10739/B06] | 9.2 | 6.7

SMILES | Biochem EGFR % Inhibition (P.167) (EGFR) [%] | PDGF Kinase % Inhibition (P.119) (PDGF-R) [%]
O=C1Nc2ccc(I)cc2C1=Cc1cc(O)c(O)c(O)c1 [10739/B07] | 59.4 | 19.8
COc1ccc(Oc2cccc(C=C3C(=O)Nc4ccc(I)cc43)c2)cc1 [10739/B08] | 19.8 | −0.1
CN(C)CCCOc1ccc(C=C2C(=O)Nc3ccc(I)cc32)cc1 [10739/B09] | 11.9 | 74.1
O=C1Nc2ccc(I)cc2C1=Cc1ccoc1 [10739/B10] | −2.1 | −16.1
O=C1Nc2ccc(I)cc2C1=Cc1ccc(CO)o1 [10739/B11] | −4.2 | −9.8
COc1ccc(C=C2C(=O)Nc3ccc(Br)c(C)c32)cc1C [10739/C02] | −1.7 | 10.6
Cc1c(Br)ccc2c1C(=Cc1cccc(OCc3ccccc3)c1)C(=O)N2 [10739/C03] | 18.3 | 10.1
Cc1c(Br)ccc2c1C(=Cc1ccc(OCc3ccccc3)cc1)C(=O)N2 [10739/C04] | 1.5 | 19.3
Cc1c(Br)ccc2c1C(=CC1COc3ccccc3O1)C(=O)N2 (stereo not drawn) [10739/C05] | −1.7 | 31.4
Cc1c(Br)ccc2c1C(=Cc1ccc(O)cc1Cl)C(=O)N2 [10739/C06] | −17.0 | 33.8
Cc1c(Br)ccc2c1C(=Cc1cc(O)c(O)c(O)c1)C(=O)N2 [10739/C07] | 34.7 | 44.5
COc1ccc(Oc2cccc(C=C3C(=O)Nc4ccc(Br)c(C)c43)c2)cc1 [10739/C08] | −1.7 | 11.0
Cc1c(Br)ccc2c1C(=Cc1ccc(OCCCN(C)C)cc1)C(=O)N2 [10739/C09] | −2.7 | 105.6
Cc1c(Br)ccc2c1C(=Cc1ccoc1)C(=O)N2 [10739/C10] | −7.0 | −18.6
Cc1c(Br)ccc2c1C(=Cc1ccc(CO)o1)C(=O)N2 [10739/C11] | −17.0 | 9.1
CNS(=O)(=O)c1ccc2c(c1)C(=Cc1ccc(OC)c(C)c1)C(=O)N2 [10739/D02] | 2.6 | 17.8
CNS(=O)(=O)c1ccc2c(c1)C(=Cc1cccc(OCc3ccccc3)c1)C(=O)N2 [10739/D03] | 24.7 | 14.4
CNS(=O)(=O)c1ccc2c(c1)C(=Cc1ccc(OCc3ccccc3)cc1)C(=O)N2 [10739/D04] | −6.4 | 7.2
CNS(=O)(=O)c1ccc2c(c1)C(=CC1COc3ccccc3O1)C(=O)N2 (stereo not drawn) [10739/D05] | −10.6 | −6.9
CNS(=O)(=O)c1ccc2c(c1)C(=Cc1ccc(O)cc1Cl)C(=O)N2 [10739/D06] | −19.8 | −43.8

SMILES | Biochem EGFR % Inhibition (P.167) (EGFR) [%] | PDGF Kinase % Inhibition (P.119) (PDGF-R) [%]
CNS(=O)(=O)c1ccc2c(c1)C(=Cc1cc(O)c(O)c(O)c1)C(=O)N2 [10739/D07] | 21.1 | 18.8
CNS(=O)(=O)c1ccc2c(c1)C(=Cc1cccc(Oc3ccc(OC)cc3)c1)C(=O)N2 [10739/D08] | −16.8 | 5.7
CNS(=O)(=O)c1ccc2c(c1)C(=Cc1ccc(OCCCN(C)C)cc1)C(=O)N2 [10739/D09] | −15.1 | 4.7
COc1ccc(C=C2C(=O)Nc3ccc(S(=O)(=O)Nc4ccc(C(F)(F)F)cc4)cc32)cc1C [10739/E02] | −8.3 | 18.3
O=C1Nc2ccc(S(=O)(=O)Nc3ccc(C(F)(F)F)cc3)cc2C1=Cc1cccc(OCc2ccccc2)c1 [10739/E03] | 4.9 | 2.8
O=C1Nc2ccc(S(=O)(=O)Nc3ccc(C(F)(F)F)cc3)cc2C1=Cc1ccc(OCc2ccccc2)cc1 [10739/E04] | −35.5 | 5.2
O=C1Nc2ccc(S(=O)(=O)Nc3ccc(C(F)(F)F)cc3)cc2C1=CC1COc2ccccc2O1 (stereo not drawn) [10739/E05] | −11.3 | 10.6
O=C1Nc2ccc(S(=O)(=O)Nc3ccc(C(F)(F)F)cc3)cc2C1=Cc1ccc(O)cc1Cl [10739/E06] | 33.5 | 72.7
O=C1Nc2ccc(S(=O)(=O)Nc3ccc(C(F)(F)F)cc3)cc2C1=Cc1cc(O)c(O)c(O)c1 [10739/E07] | 79.6 | 48.4
COc1ccc(Oc2cccc(C=C3C(=O)Nc4ccc(S(=O)(=O)Nc5ccc(C(F)(F)F)cc5)cc43)c2)cc1 [10739/E08] | −17.4 | 21.7
CN(C)CCCOc1ccc(C=C2C(=O)Nc3ccc(S(=O)(=O)Nc4ccc(C(F)(F)F)cc4)cc32)cc1 [10739/E09] | 15.2 | 18.3
O=C1Nc2ccc(S(=O)(=O)Nc3ccc(C(F)(F)F)cc3)cc2C1=Cc1ccoc1 [10739/E10] | 17.5 | 25.6
O=C1Nc2ccc(S(=O)(=O)Nc3ccc(C(F)(F)F)cc3)cc2C1=Cc1ccc(CO)o1 [10739/E11] | −23.4 | 15.9
COc1ccc(C=C2C(=O)Nc3ccc(S(=O)(=O)N4CCOCC4)cc32)cc1C [10739/F02] | −3.6 | 6.2
O=C1Nc2ccc(S(=O)(=O)N3CCOCC3)cc2C1=Cc1cccc(OCc2ccccc2)c1 [10739/F03] | −10.8 | −7.4
O=C1Nc2ccc(S(=O)(=O)N3CCOCC3)cc2C1=Cc1ccc(OCc2ccccc2)cc1 [10739/F04] | −7.0 | −4.0
O=C1Nc2ccc(S(=O)(=O)N3CCOCC3)cc2C1=CC1COc2ccccc2O1 (stereo not drawn) [10739/F05] | −16.4 | −4.5
O=C1Nc2ccc(S(=O)(=O)N3CCOCC3)cc2C1=Cc1ccc(O)cc1Cl [10739/F06] | −15.3 | 9.1
